Results: patent US11981660B2, “Neurite outgrowth promoters and uses thereof” (UNIVERSITY OF MIAMI, priority 2018, dated 2024)

System: hippocampal neurons
Assay: Neurite outgrowth assay in cultured E18 rat hippocampal neurons (48 h, βIII-tubulin staining, Cellomics ArrayScan)
Type: cell-based
Details: Hippocampal neuron; for activity at 0.015625 µg/mL: 15.625 ng/mL compound; for activity at 0.015625 µg/mL / activity at 0.03125 µg/mL / activity at 0.0625 µg/mL / activity at 0.125 µg/mL / activity at 0.25 µg/mL / activity at 0.5 µg/mL: 48 hours, read-out: neurite growth length (% NTL); for activity at 0.03125 µg/mL: 31.25 ng/mL compound; for activity at 0.0625 µg/mL: 62.5 ng/mL compound; for activity at 0.125 µg/mL: 125 ng/mL compound; for activity at 0.25 µg/mL: 250 ng/mL compound; for activity at 0.5 µg/mL: 500 ng/mL compound; for EC200 / EC300: 48 h, estimated using linear interpolation; for EC200: 200% effective dose, read-out: ED200%; for EC300: 300% effective dose, read-out: ED300%
Method: Pre-coating culture plates: On the day before the experiment, 96-well plates were pre-coated by plating 50 μL of poly-D-lysine solution (PDL, 0.5 mg/mL) in each well. The next morning, the plates were washed four or five times with HBSS or PBS (150 μL/rinse), then left in buffer until cell plating
Preparing the cells: A timed pregnant rat carrying E18 embryos was euthanized using an IACUC approved method. In a laminar flow hood, the embryos were removed and placed in a petri dish containing Hank's Balanced Salt Solution (HBSS) with 20 mM HEPES, pH 7.3. Pup brains were dissected (see Meberg et al., Methods cell Biol 71:111-127 (2003)) and hippocampi were collected in 15 mL a conical tube containing Hibernate E with SM1 (2% v/v).
Dissociation media was prepared by combining 4.5 mL of Hibernate E (without SM1) with 0.5 mL of trypsin and 100 μl of DNAse solution. The medium over the hippocampi was carefully removed and replaced with dissociation solution, then incubated at 37° C. for 15-20 minutes, occasionally swirling the tube.
Using flame polished cotton plugged Pasteur pipettes, the dissociation media was removed, and then 5 mL of Hibernate E containing SM1 were added. The tube was swirled to thoroughly wash the tissue. The tissue was allowed to settle to the bottom of the tube, and the rinse solution was carefully removed. This step was repeated 5 times to dilute out trypsin and DNAse and remove any debris from lysed cells.
The final rinse media was removed from the tube and 1 pipette-full (1-2 mL) of Hibernate E with SM1 was added. Using the flame-polished Pasteur pipette (pre-wetted with rinse media), the tube was triturated until all cells had dissociated and no visible chunks of tissue remained. Fewer than ten triturations were typically performed. The volume was adjusted to 8-12 mL using Hibernate E containing SM1, the well was mixed and cell concentration was determined.
Plating: The cells were diluted in culture media (NbActiv4 Cell-culture media) to a final concentration of 10,000 cells/mL. The HBSS was aspirated from PDL coated plates, and 150 μL of cell solution was loaded in the middle 48 wells at 1500 cells per well. Water was loaded in the outer wells to decrease evaporation from edge wells. Cells were allowed to adhere for 2 hours in tissue culture incubator prior to treatment.
Treatment: Compounds were diluted to various concentrations to provide 6 dose response concentrations of 500 ng/mL, 250 ng/mL, 125 ng/mL, 62.5 ng/mL, 31.25 ng/mL, and 15.625 ng/mL. The plates were cultured for 48 hours, exposed to the compound at the various dose response concentrations.
Fixing the cultures: The culture medium was removed from the plates and immediately replaced with 100-200 μL of warm (37° C.) 4% paraformaldehyde (“PFA”) solution in phosphate-buffered saline (“PBS”). The cells were fixed for 15-20 minutes at room temperature, and then rinsed with PBS (200 μl/well×3).
Staining and imaging: The PBS was removed and replaced with 100 μL of blocking/permeabilization buffer (PBS, 0.2% fish gelatin, 0.03% Triton X-100, 0.02% NaN3), then incubated overnight at 4° C. To this was added 100 μL of primary antibody solution (mouse anti-Beta III tubulin in blocking buffer) and incubate overnight at 4° C. The wells were rinsed with PBS (200 μl×3), which was then removed and replaced with 100 μL of secondary antibody solution (Goat anti-mouse Alexa 488, 10 μg/ml Hoechst 33342, 0.2% fish gelatin, 0.02% azide, in PBS). The plate was shaken gently on a rotating shaker for 2 hours, then rinsed with PBS (200 μl×5).
The plate was imaged using a Cellomics ArrayScan VTI in 2 different channels for nuclear staining (Hoechst) and cell body/neurite staining (βIII-tubulin). Typically, nine fields per well were imaged with a 5× objective and automatically traced by the Neuronal Profiling Bioapplication. To get reproducible results, at least 200-300 valid neurons were measured per condition. […]

`CC(C)C[C@@H]1CN(CCCC[C@H]2CNC(CCCc3ccccc3)=N2)C(=S)N1CCC1CCCCC1` [Compound A15, (R)-3-(2-cyclohexylethyl)-4-isobutyl-1-(4-((S)-2-(3-phenylpropyl)-4,5-dihydro-1H-imidazol-4-yl)butyl)imidazolidine-2-thione] showed an activity at 0.015625 µg/mL of 114%, an activity at 0.03125 µg/mL of 135% and an activity at 0.0625 µg/mL of 199%. It also gave an activity at 0.125 µg/mL of 201%, an activity at 0.25 µg/mL of 267% and an activity at 0.5 µg/mL of 247%.

`CCC(C)C1=N[C@@H](CCCCN2C[C@@H](CC(C)C)N(CC3CCC(C)CC3)C2=S)CN1` (stereo partly drawn) [Compound A16, (4R)-1-(4-((4S)-2-(sec-butyl)-4,5-dihydro-1H-imidazol-4-yl)butyl)-4-isobutyl-3-((4-methylcyclohexyl)methyl)imidazolidine-2-thione] gave an activity at 0.015625 µg/mL of 131%, an activity at 0.03125 µg/mL of 216% and an activity at 0.0625 µg/mL of 254%. The activity at 0.125 µg/mL was 268%, the activity at 0.25 µg/mL was 236% and the activity at 0.5 µg/mL was 264%. It also gave an EC200 of 0.01 µM and an EC300 of 0.053 µM.

`CC(C)C[C@@H]1CN(CCCC[C@H]2CNC(C3CCCC3)=N2)C(=S)N1CC1CCC(C)CC1` (stereo partly drawn) [Compound A17, (R)-1-(4-((S)-2-cyclopentyl-4,5-dihydro-1H-imidazol-4-yl)butyl)-4-isobutyl-3-((4-methylcyclohexyl)methyl)imidazolidine-2-thione] showed an activity at 0.015625 µg/mL of 170%, an activity at 0.03125 µg/mL of 255% and an activity at 0.0625 µg/mL of 254%. It also gave an activity at 0.125 µg/mL of 312%, an activity at 0.25 µg/mL of 238% and an activity at 0.5 µg/mL of 263%. For the same compound, the EC200 was 0.004 µM and the EC300 was 0.025 µM.

With `CC(C)C[C@@H]1CN(CCCC[C@H]2CNC(CCCc3ccccc3)=N2)C(=S)N1CC1CCC(C)CC1` (stereo partly drawn) [Compound A18, (R)-4-isobutyl-3-((4-methylcyclohexyl)methyl)-1-(4-((S)-2-(3-phenylpropyl)-4,5-dihydro-1H-imidazol-4-yl)butyl)imidazolidine-2-thione] the activity at 0.015625 µg/mL was 145%, the activity at 0.03125 µg/mL was 197% and the activity at 0.0625 µg/mL was 247%. It also gave an activity at 0.125 µg/mL of 257%, an activity at 0.25 µg/mL of 240% and an activity at 0.5 µg/mL of 224%. The EC200 was 0.025 µM and the EC300 was 0.461 µM.

In the case of `CCC(C)C1=N[C@@H](CCCCN2C[C@@H](c3ccccc3)N(CCCC(C)C)C2=S)CN1` (stereo partly drawn) [Compound A19, (4R)-1-(4-((4S)-2-(sec-butyl)-4,5-dihydro-1H-imidazol-4-yl)butyl)-3-(4-methylpentyl)-4-phenylimidazolidine-2-thione], the activity at 0.015625 µg/mL is reported as 121%, the activity at 0.03125 µg/mL is reported as 179% and the activity at 0.0625 µg/mL is reported as 253%. The activity at 0.125 µg/mL was 264%, the activity at 0.25 µg/mL was 266% and the activity at 0.5 µg/mL was 276%.

Work on `CC(C)CCCN1C(=S)N(CCCC[C@H]2CNC(C3CCCC3)=N2)C[C@H]1c1ccccc1` [Compound A20, (R)-1-(4-((S)-2-cyclopentyl-4,5-dihydro-1H-imidazol-4-yl)butyl)-3-(4-methylpentyl)-4-phenylimidazolidine-2-thione] yielded an activity at 0.015625 µg/mL of 174%, an activity at 0.03125 µg/mL of 234% and an activity at 0.0625 µg/mL of 280%. The activity at 0.125 µg/mL was 249%, the activity at 0.25 µg/mL was 278% and the activity at 0.5 µg/mL was 273%.

In the case of `CC(C)CCCN1C(=S)N(CCCC[C@H]2CNC(CCCc3ccccc3)=N2)C[C@H]1c1ccccc1` [Compound A21, (R)-3-(4-methylpentyl)-4-phenyl-1-(4-((S)-2-(3-phenylpropyl)-4,5-dihydro-1H-imidazol-4-yl)butyl)imidazolidine-2-thione], the activity at 0.015625 µg/mL is reported as 114%, the activity at 0.03125 µg/mL is reported as 170% and the activity at 0.0625 µg/mL is reported as 172%. It also gave an activity at 0.125 µg/mL of 259%, an activity at 0.25 µg/mL of 254% and an activity at 0.5 µg/mL of 225%.

Compound `CCC(C)C1=N[C@@H](CCCCN2C[C@@H](c3ccccc3)N(CCC3CCCCC3)C2=S)CN1` (stereo partly drawn) [Compound A22, (4R)-1-(4-((4S)-2-(sec-butyl)-4,5-dihydro-1H-imidazol-4-yl)butyl)-3-(2-cyclohexylethyl)-4-phenylimidazolidine-2-thione] has an activity at 0.015625 µg/mL of 139%, an activity at 0.03125 µg/mL of 201% and an activity at 0.0625 µg/mL of 257%. The activity at 0.125 µg/mL was 246%, the activity at 0.25 µg/mL was 222% and the activity at 0.5 µg/mL was 228%.

For `S=C1N(CCCC[C@H]2CNC(C3CCCC3)=N2)C[C@@H](c2ccccc2)N1CCC1CCCCC1` [Compound A23, (R)-3-(2-cyclohexylethyl)-1-(4-((S)-2-cyclopentyl-4,5-dihydro-1H-imidazol-4-yl)butyl)-4-phenylimidazolidine-2-thione], the activity at 0.015625 µg/mL was 182%, the activity at 0.03125 µg/mL was 252% and the activity at 0.0625 µg/mL was 260%. The activity at 0.125 µg/mL was 262%, the activity at 0.25 µg/mL was 232% and the activity at 0.5 µg/mL was 186%. It also gave an EC200 of 0.007 µM and an EC300 of 0.091 µM.

Compound `S=C1N(CCCC[C@H]2CNC(CCCc3ccccc3)=N2)C[C@@H](c2ccccc2)N1CCC1CCCCC1` [Compound A24, (R)-3-(2-cyclohexylethyl)-4-phenyl-1-(4-((S)-2-(3-phenylpropyl)-4,5-dihydro-1H-imidazol-4-yl)butyl)imidazolidine-2-thione] has an activity at 0.015625 µg/mL of 144%, an activity at 0.03125 µg/mL of 209% and an activity at 0.0625 µg/mL of 252%. It also gave an activity at 0.125 µg/mL of 254%, an activity at 0.25 µg/mL of 222% and an activity at 0.5 µg/mL of 184%.

`CCC(C)C1=N[C@@H](CCCCN2C[C@@H](c3ccccc3)N(CC3CCC(C)CC3)C2=S)CN1` (stereo partly drawn) [Compound A25, (4R)-1-(4-((4S)-2-(sec-butyl)-4,5-dihydro-1H-imidazol-4-yl)butyl)-3-((4-methylcyclohexyl)methyl)-4-phenylimidazolidine-2-thione] gave an activity at 0.015625 µg/mL of 190%, an activity at 0.03125 µg/mL of 256% and an activity at 0.0625 µg/mL of 297%. It also gave an activity at 0.125 µg/mL of 302%, an activity at 0.25 µg/mL of 256% and an activity at 0.5 µg/mL of 280%. It also gave an EC200 of 0.005 µM and an EC300 of 0.054 µM.

For `CC1CCC(CN2C(=S)N(CCCC[C@H]3CNC(C4CCCC4)=N3)C[C@H]2c2ccccc2)CC1` (stereo partly drawn) [Compound A26, (R)-1-(4-((S)-2-cyclopentyl-4,5-dihydro-1H-imidazol-4-yl)butyl)-3-((4-methylcyclohexyl)methyl)-4-phenylimidazolidine-2-thione], the activity at 0.015625 µg/mL was 251%, the activity at 0.03125 µg/mL was 272% and the activity at 0.0625 µg/mL was 306%. It also gave an activity at 0.125 µg/mL of 286%, an activity at 0.25 µg/mL of 271% and an activity at 0.5 µg/mL of 230%. The EC200 was 0.002 µM and the EC300 was over 0.52 µM.

Compound `CC1CCC(CN2C(=S)N(CCCC[C@H]3CNC(CCCc4ccccc4)=N3)C[C@H]2c2ccccc2)CC1` (stereo partly drawn) [Compound A27, (R)-3-((4-methylcyclohexyl)methyl)-4-phenyl-1-(4-((S)-2-(3-phenylpropyl)-4,5-dihydro-1H-imidazol-4-yl)butyl)imidazolidine-2-thione] has an activity at 0.015625 µg/mL of 185%, an activity at 0.03125 µg/mL of 174% and an activity at 0.0625 µg/mL of 238%. It also gave an activity at 0.125 µg/mL of 269%, an activity at 0.25 µg/mL of 245% and an activity at 0.5 µg/mL of 221%. The EC200 was 0.017 µM and the EC300 was over 0.471 µM.
